Read-outs that look alike come from different tables or passages of the source.

This is an account of results in patent US9427426B2 (priority 2008, dated 2016).

One data set concerns rat. As to conditions: cited from earlier work.
The conditions of data set [1]: cited from earlier work; for solubility in water, in words: water (NAC: at 20° C.).
For data set [2], the system named is rats intoxicated with paracetamol. Description: Example 4: erdosteine i.v. vs NAC i.v. in rats intoxicated with paracetamol. Format: in vivo, Wistar rats. The text has this: Experiment has been carried on in parallel with experiment of example 3 and results of animals not intoxicated not treated (lot1) have been used as reference.
(§1) 3. […] NAC has been dissolved in bidistilled water.
Animals have been monitored as described in example 3.
Mortality has been recorded.

The subject of data set [3] is rats intoxicated with lead (lead acetate). Description: Example 2: erdosteine i.v. vs NAC i.v. in rats intoxicated with lead. The class given is in vivo, Wistar rats. Here is the method: (§2) The animals have been randomly divided in 11 lots.
as §1
(§3) 4. […] Erdosteine has been solubilized in bidistilled water and sodium hydrogen carbonate equimolar, the resulting solution being administered in volume of 10 ml/kg. Preliminarily we tested the different molar ratios erdosteine/sodium hydrogen carbonate in a range between 0.5:1 and 1.5:1 and the volume to be solubilized. […] Animals Monitoring:
(§4) Mortality has been recorded. […] Few animals have been collected urine eliminated spontaneously for Pb—Hg analysis. Animals have been sacrificed under general anesthesia with ether. 6 animals of each group (3 males and 3 females) have been randomly selected for macroscopic and microscopic anatomic-pathological examination.

Data set [4] concerns rats intoxicated with mercury (mercury chloride). Put plainly: Example 1: erdosteine per os vs NAC per os in rats intoxicated with mercury. The class given is in vivo, Wistar rats. As to conditions: erdosteine 875 mg/kg or NAC 500 mg/kg per os once a day for 7 days. Here is the method: (§5) 3. […] NAC has been mixed with bidistilled water, the resulting solution being administered in volume of 10 ml/kg.
(§6) 4. […] Erdosteine has been mixed with bidistilled water and sodium hydrogen carbonate equimolar, the resulting solution being administered in volume of 10 ml/kg.
as §4

Data set [5] shares this test system. Put plainly: Example 2: erdosteine i.v. vs NAC i.v. in rats intoxicated with mercury. The class given is in vivo, Wistar rats. The protocol:
as §2, §1, §3, §4

Data set [6] deals with rats intoxicated with lead (lead acetate). Description: Example 1: erdosteine per os vs NAC per os in rats intoxicated with lead. To be noted: erdosteine 875 mg/kg or NAC 500 mg/kg per os once a day for 7 days. Format: in vivo, Wistar rats. The protocol:
as §5, §6, §4

[7] abbreviates: paracetamol […] per os, erdosteine 350 mg/kg i.v. or NAC 114 mg/kg i.v. once a day for 7 days, 30 animals/lot.
Setting [8] is: paracetamol intoxicated, erdosteine 350 mg/kg i.v. or NAC 114 mg/kg i.v., 7 days.
The mark [9] stands for this setting: survivors at 7 days, paracetamol intoxicated, erdosteine 350 mg/kg i.v. or NAC 114 mg/kg i.v.
Setting [10] is: Pb intoxicated (lead acetate 4665 mg/kg per os), ERDO1 = erdosteine 350 mg/kg i.v. or NAC 114 mg/kg i.v. once a day for 7 days, 35 animals/lot.
[11] abbreviates: Pb intoxicated, ERDO1 = erdosteine 350 mg/kg i.v. or NAC 114 mg/kg i.v. once a day for 7 days.
The mark [12] stands for this setting: survivors after 7 days, Pb intoxicated, ERDO1 = erdosteine 350 mg/kg i.v. or NAC 114 mg/kg i.v. once a day.
[13] abbreviates: Hg intoxicated (mercury chloride 42 mg/kg per os), 30 animals/lot.
Where [14] appears, read: survivors after 7 days, Hg intoxicated.
[15] abbreviates: Hg intoxicated (mercury chloride 42 mg/kg per os), ERDO1 = erdosteine 350 mg/kg i.v. or NAC 114 mg/kg i.v. once a day for 7 days, 35 animals/lot.
[16] abbreviates: Hg intoxicated, ERDO1 = erdosteine 350 mg/kg i.v. or NAC 114 mg/kg i.v. once a day for 7 days.
Where [17] appears, read: survivors after 7 days, Hg intoxicated, ERDO1 = erdosteine 350 mg/kg i.v. or NAC 114 mg/kg i.v. once a day.
The mark [18] stands for this setting: Pb intoxicated (lead acetate 4665 mg/kg per os), 30 animals/lot.
Setting [19] is: survivors after 7 days, Pb intoxicated.

For the molecule `OCC(S)CS` (centres unmarked) [Dimercaprol, 2,3,Dimercapto1-propanol], the LD50 i.v. in the data set with rat (rat, i.v.) is given as 105 mg/kg. Besides, the “solubility in water, in words” value in data set [1] was “hardly soluble”.
Take `CC(=O)N[C@@H](CS)C(=O)O` [NAC, N-Acetylcysteine]: in the data set on rat (rat, in vivo, iv), the LD50 i.v. was 1140 mg/kg. Moreover, in the data set with rat (rat, in vivo), the LD50 per os is listed as 5050 mg/kg. In data set [2] (setting [7]), the Mortality percentual stood at 20% and the Total mortality was 6/30. The “Renal aggression (urine summary), in words” value in data set [2] (paracetamol intoxicated, erdosteine 350 mg/kg i.v. or NAC 114 mg/kg i.v.) is “antagonized”. Besides, in data set [2] (setting [8]), the “Urine summary: Bil.” value is 3 mg/dL, the “Urine summary: Chet” value is reported as “neg”, the “Urine summary: Density” value is reported as 1015 and the “Urine summary: Erythrocyte” value amounted to 25 µL⁻¹. In data set [2] (setting [8]), the “Urine summary: Glucose” value is “neg”, the “Urine summary: Leuc” value was determined as 25 µL⁻¹, the “Urine summary: Prot.” value was 75 mg/dL and the “Urine summary: UBG” value is 1 mg/dL. Moreover, the “Urine summary: pH” value in data set [2] (setting [8]) is on record as 6.8. Also, in data set [2] (setting [9]), the ALT is recorded as 206.6^1, the AST is given as 42.6^2, the HCT was 41.7^1 and the PLT is 550.8^1. For the same molecule, in data set [2] (setting [9]), the RBC was 7.20^1, the Urea was 74.76^1 and the Uric acid was 2.574^1. For the same molecule, the “solubility in water, in words” value in data set [1] was “slightly soluble”. Also, in data set [3] (setting [10]), the Mortalitaty total is 28 ^3 and the Mortality in percent is 80%. Besides, in data set [3] (setting [11]), the “Anatomical pathology: lesions” value is recorded as “did not improve lesions” and the “Pb in urine, Pb mean values” amounted to 12.9 mg/L. Moreover, in data set [3] (setting [12]), the Creatinine mean values is reported as 0.78 ^4 mK/dl, the Haematocrit mean values is 35.48 ^3, the Haemoglobin mean values was 15.86 ^3 g/dl and the Leucocytes mean values was 16.36 ^3. In addition, in data set [3] (setting [12]), the Urea mean values is listed as 80.98 ^4 mg/dl, the “Uric acid mean value” is recorded as 2.13 ^4 mg/dl and the erythrocytes mean values was 6.93 ^3 *10^6/mm^3. Besides, in data set [4] (setting [13]), the Mortality in percent worked out at 33.3% and the Mortality total is on record as 10^2^. For the same molecule, the “Anatomical pathology: lesions (macroscopic and microscopic examination)” value in data set [4] (Hg intoxicated) is listed as “less important lesions”. Besides, the “Hg in urine mean values” in data set [4] (Hg intoxicated, GS MS Varian 4100) is 11.5 mg/L. In data set [4] (setting [14]), the Creatinine mean values is on record as 0.56 ^3 mK/dl, the Haematocrit mean values is recorded as 41.50^3, the Haemoglobin mean values was 13.58^3 g/dl and the Leucocytes mean values was 6.72^3. In addition, in data set [4] (setting [14]), the Urea mean values was 85.45 ^3 mg/dl, the “Uric acid mean value” is on record as 2.38 ^1 mg/dl and the erythrocytes mean values is on record as 6.92^3 *10^6/mm^3. Besides, in data set [5] (setting [15]), the Mortalitaty total is recorded as 30 ^3 and the Mortality in percent came to 85.7%. In data set [5] (setting [16]), the “Anatomical pathology: lesions” value was “least severe damages” and the “Hg in urine mean values” worked out at 13.9 mg/L. Besides, in data set [5] (setting [17]), the Creatinine mean values is 1.06 ^4 mK/dl, the Haematocrit mean values is listed as 38.97 ^3, the Haemoglobin mean values was 14.57 ^3 g/dl and the Leucocytes mean values is reported as 10.5 ^3. In data set [5] (setting [17]), the Urea mean values is 79.52 ^4 mg/dl, the “Uric acid mean value” is on record as 2.02 ^4 mg/dl and the erythrocytes mean values was 6.76 ^3 *10^6/mm^3. In data set [6] (setting [18]), this molecule had a Mortality in percent of 30% and a Mortality total of 9. For the same molecule, the “Anatomical pathology: lesions (macroscopic and microscopic examination)” value in data set [6] (Pb intoxicated) is reported as “did not improve lesions”. For the same molecule, in data set [6] (Pb intoxicated, GS MS Varian 4100), the “Pb in urine, Pb mean values” came to 13.2 mg/L. Further, in data set [6] (setting [19]), the Creatinine mean values is 0.66 ^3 mK/dl, the Haematocrit mean values is 41.42^3, the Haemoglobin mean values is on record as 13.58^3 g/dl and the Leucocytes mean values was 6.82^3. In addition, in data set [6] (setting [19]), the Urea mean values is given as 104.15 ^3 mg/dl, the “Uric acid mean value” is listed as 2.36 ^1 mg/dl and the erythrocytes mean values is 6.55^3 *10^6/mm^3.
As for `[Cl][Hg][Cl]` [mercury chloride], in the data set with rat (per os, rat where given), the LD50 per os is 42 mg/kg. Moreover, in data set [1] (water at 20° C.), the solubility in water was 7.4 g/100 ml.
As for Lead acetate trihydrate, the LD50 per os with rat (per os, rat where given) is given as 4665 mg/kg.
